{"source": "ChEMBL document CHEMBL5131537", "about": "(J Med Chem, 2022)", "key": {"[1]": {"test": "Acute toxicity in 12 hr fasted female CD-1(ICR) mouse assessed as changes in body weight at 2 g/kg, IG administered as single dose measured after 14 days", "details": "in vivo, po, 2000 mg/kg, 336 h, time 14 day"}, "[2]": {"test": "Cmax in Sprague-Dawley rat at 1 mg/kg, iv measured after 0.083 to 24 hrs by LC-MS analysis", "format": "ADME, organism-based", "design": "time upper 24 hrs, dose 1 mg/kg, time lower 0.083 hrs, route iv", "details": "in vivo"}, "Cytochrome P450 2D6": {"biological_target": "Cytochrome P450 2D6 (Homo sapiens, UniProt P10635)", "sequence (P10635 whole entry)": "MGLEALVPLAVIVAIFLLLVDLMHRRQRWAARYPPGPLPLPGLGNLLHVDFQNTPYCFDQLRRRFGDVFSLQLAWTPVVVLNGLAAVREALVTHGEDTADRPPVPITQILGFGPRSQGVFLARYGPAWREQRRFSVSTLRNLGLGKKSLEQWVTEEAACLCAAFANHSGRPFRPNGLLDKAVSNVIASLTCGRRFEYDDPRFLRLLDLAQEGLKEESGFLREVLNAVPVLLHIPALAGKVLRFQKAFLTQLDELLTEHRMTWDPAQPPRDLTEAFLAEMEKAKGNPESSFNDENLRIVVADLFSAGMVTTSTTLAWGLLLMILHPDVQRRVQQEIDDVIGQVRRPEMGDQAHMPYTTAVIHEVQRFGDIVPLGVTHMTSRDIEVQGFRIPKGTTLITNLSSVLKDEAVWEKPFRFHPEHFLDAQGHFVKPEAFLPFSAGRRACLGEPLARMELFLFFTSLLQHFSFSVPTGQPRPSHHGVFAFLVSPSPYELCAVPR", "test": "Inhibition of CYP2D6 in human liver microsomes using dextromethorphan as substrate incubated for 15 to 45 mins in presence of NADPH"}, "[3]": {"test": "Acute toxicity in 12 hr fasted male CD-1(ICR) mouse assessed as pathological damage in kidney at 2 g/kg, IG administered as single dose measured after 14 days by H and E staining based analysis", "format": "tissue-based", "details": "in vivo, po, 2000 mg/kg, 336 h, time 14 day"}, "[4]": {"test": "MRT (0 to infinity) in Sprague-Dawley rat at 5 mg/kg, po measured after 0.083 to 24 hrs by LC-MS analysis", "format": "ADME, organism-based", "details": "in vivo, time 0.083-24 hrs"}, "[5]": {"test": "Acute toxicity in 12 hr fasted male CD-1(ICR) mouse assessed as changes in body weight at 2 g/kg, IG administered as single dose measured after 14 days", "details": "in vivo, po, 2000 mg/kg, 336 h, time 14 day"}, "[6]": {"test": "AUC (0 to infinity) in Sprague-Dawley rat at 5 mg/kg, po measured after 0.083 to 24 hrs by LC-MS analysis", "format": "ADME, organism-based", "design": "time upper 24 hrs, dose 5 mg/kg, time lower 0.083 hrs, route po", "details": "in vivo"}, "Cytochrome P450 1A2": {"biological_target": "T1, Cytochrome P450 1A2 (Homo sapiens, UniProt P05177)", "T1 sequence (P05177 whole entry)": "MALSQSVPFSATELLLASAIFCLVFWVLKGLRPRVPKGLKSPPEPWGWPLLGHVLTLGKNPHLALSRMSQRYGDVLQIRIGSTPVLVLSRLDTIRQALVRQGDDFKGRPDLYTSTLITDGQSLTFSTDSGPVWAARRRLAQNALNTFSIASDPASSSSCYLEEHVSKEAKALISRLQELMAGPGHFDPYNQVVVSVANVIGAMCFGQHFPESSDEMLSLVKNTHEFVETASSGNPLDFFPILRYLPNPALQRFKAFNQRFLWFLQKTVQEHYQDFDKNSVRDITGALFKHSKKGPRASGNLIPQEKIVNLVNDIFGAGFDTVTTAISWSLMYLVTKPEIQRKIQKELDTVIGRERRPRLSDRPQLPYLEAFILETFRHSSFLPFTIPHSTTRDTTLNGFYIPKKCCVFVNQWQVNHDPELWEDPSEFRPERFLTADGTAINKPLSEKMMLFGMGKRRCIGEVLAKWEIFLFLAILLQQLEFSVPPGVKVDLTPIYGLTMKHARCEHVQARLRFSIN", "test": "Inhibition of CYP1A2 in human liver microsomes using phenacetin as substrate incubated for 15 to 45 mins in presence of NADPH"}, "[7]": {"test": "Acute toxicity in 12 hr fasted female CD-1(ICR) mouse assessed as pathological damage in lung at 2 g/kg, IG administered as single dose measured after 14 days by H and E staining based analysis", "format": "tissue-based", "details": "in vivo, po, 2000 mg/kg, 336 h, time 14 day"}, "[8]": {"test": "Acute toxicity in 12 hr fasted male CD-1(ICR) mouse assessed as pathological damage in heart at 2 g/kg, IG administered as single dose measured after 14 days by H and E staining based analysis", "format": "tissue-based", "details": "in vivo, po, 2000 mg/kg, 336 h, time 14 day"}, "[9]": {"test": "Acute toxicity in 12 hr fasted female CD-1(ICR) mouse assessed as pathological damage in spleen at 2 g/kg, IG administered as single dose measured after 14 days by H and E staining based analysis", "format": "tissue-based", "details": "in vivo, po, 2000 mg/kg, 336 h, time 14 day"}, "[10]": {"test": "Half life in Sprague-Dawley rat at 5 mg/kg, po measured after 0.083 to 24 hrs by LC-MS analysis", "format": "ADME, organism-based", "details": "in vivo, time 0.083-24 hrs"}, "[11]": {"test_system": "Human immunodeficiency virus 1", "test": "microbe, parasite or virus in culture", "details": "Human immunodeficiency virus 1, IIIB, MT4", "description": "Antiviral activity against wild type HIV-1 IIIB infected in human MT4 cells assessed as protection against virus-induced cytopathic effect by MTT assay"}, "[12]": {"test": "Acute toxicity in 12 hr fasted female CD-1(ICR) mouse assessed as pathological damage in heart at 2 g/kg, IG administered as single dose measured after 14 days by H and E staining based analysis", "format": "tissue-based", "details": "in vivo, po, 2000 mg/kg, 336 h, time 14 day"}, "hERG (KCNH2)": {"biological_target": "hERG (KCNH2) (Homo sapiens, UniProt Q12809)", "sequence (Q12809 whole entry)": "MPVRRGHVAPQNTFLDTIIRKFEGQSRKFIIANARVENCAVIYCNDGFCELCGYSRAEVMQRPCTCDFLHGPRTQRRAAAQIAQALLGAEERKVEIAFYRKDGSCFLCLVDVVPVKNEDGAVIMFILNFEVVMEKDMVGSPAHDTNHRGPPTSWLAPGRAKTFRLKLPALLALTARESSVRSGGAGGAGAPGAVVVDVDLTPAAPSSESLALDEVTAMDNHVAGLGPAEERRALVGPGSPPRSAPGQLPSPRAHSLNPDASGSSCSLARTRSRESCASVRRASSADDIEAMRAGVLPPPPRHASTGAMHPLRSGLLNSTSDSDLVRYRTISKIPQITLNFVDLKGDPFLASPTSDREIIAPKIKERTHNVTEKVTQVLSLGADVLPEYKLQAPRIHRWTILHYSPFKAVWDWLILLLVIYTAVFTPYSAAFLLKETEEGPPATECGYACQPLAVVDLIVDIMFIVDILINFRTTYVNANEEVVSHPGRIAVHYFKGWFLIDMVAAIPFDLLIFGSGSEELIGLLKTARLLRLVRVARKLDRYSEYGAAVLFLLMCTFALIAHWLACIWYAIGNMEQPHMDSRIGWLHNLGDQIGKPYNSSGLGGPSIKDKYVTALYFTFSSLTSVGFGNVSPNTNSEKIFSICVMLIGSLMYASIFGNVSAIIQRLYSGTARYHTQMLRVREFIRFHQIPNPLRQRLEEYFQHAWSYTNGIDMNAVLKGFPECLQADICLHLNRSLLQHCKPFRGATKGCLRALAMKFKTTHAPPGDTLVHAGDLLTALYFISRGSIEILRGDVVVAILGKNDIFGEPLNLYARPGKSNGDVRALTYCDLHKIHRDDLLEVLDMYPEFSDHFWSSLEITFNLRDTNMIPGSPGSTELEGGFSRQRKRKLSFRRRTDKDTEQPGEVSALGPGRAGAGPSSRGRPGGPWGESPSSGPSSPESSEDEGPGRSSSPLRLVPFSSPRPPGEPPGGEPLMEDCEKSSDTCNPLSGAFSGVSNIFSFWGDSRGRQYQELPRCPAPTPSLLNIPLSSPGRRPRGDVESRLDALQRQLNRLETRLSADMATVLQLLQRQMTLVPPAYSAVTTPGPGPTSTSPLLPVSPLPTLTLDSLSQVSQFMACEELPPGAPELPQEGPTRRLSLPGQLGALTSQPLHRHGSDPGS", "test": "Inhibition of human ERG potassium channel transfected in CHO cells at 40 uM by automated patch clamp assay", "format": "toxicity, cell-based", "details": "CHO cells transfected with hERG"}, "[13]": {"test": "Acute toxicity in 12 hr fasted female CD-1(ICR) mouse assessed as pathological damage in kidney at 2 g/kg, IG administered as single dose measured after 14 days by H and E staining based analysis", "format": "tissue-based", "details": "in vivo, po, 2000 mg/kg, 336 h, time 14 day"}, "[14]": {"biological_target": "Voltage-gated inwardly rectifying potassium channel KCNH2 (Homo sapiens, UniProt Q12809)", "sequence (Q12809 whole entry)": "as above", "test": "Inhibition of human ERG potassium channel transfected in CHO cells by automated patch clamp assay", "format": "toxicity, cell-based"}, "[15]": {"test": "AUC (0 to infinity) in Sprague-Dawley rat at 1 mg/kg, iv measured after 0.083 to 24 hrs by LC-MS analysis", "format": "ADME, organism-based", "design": "dose 1 mg/kg, time 0.083-24 hrs, route iv", "details": "in vivo"}, "[16]": {"test": "Cmax in Sprague-Dawley rat at 5 mg/kg, po measured after 0.083 to 24 hrs by LC-MS analysis", "format": "ADME, organism-based", "design": "dose 5 mg/kg, time 0.083-24 hrs, route po", "details": "in vivo"}, "[17]": {"test": "Acute toxicity in 12 hr fasted female CD-1(ICR) mouse assessed as pathological damage in brain at 2 g/kg, IG administered as single dose measured after 14 days by H and E staining based analysis", "format": "tissue-based", "details": "in vivo, po, 2000 mg/kg, 336 h, time 14 day"}, "[18]": {"test_system": "Human immunodeficiency virus 1", "test": "Antiviral activity against HIV-1 IIIB harboring reverse transcriptase Y181C mutant infected in human MT4 cells by MTT assay", "format": "functional, organism-based", "details": "Human immunodeficiency virus 1, IIIB"}, "[19]": {"test": "Tmax in Sprague-Dawley rat at 1 mg/kg, iv measured after 0.083 to 24 hrs by LC-MS analysis", "format": "ADME, organism-based", "details": "in vivo, time 0.083-24 hrs"}, "[20]": {"test_system": "Human immunodeficiency virus 1", "test": "Antiviral activity against HIV-1 IIIB harboring reverse transcriptase K103N mutant infected in human MT4 cells by MTT assay", "format": "functional, organism-based", "details": "Human immunodeficiency virus 1, IIIB"}, "[21]": {"test_system": "Human immunodeficiency virus 1", "test": "microbe, parasite or virus in culture", "details": "Human immunodeficiency virus 1, IIIB, MT4", "remark": "listed apart in the source", "description": "Antiviral activity against HIV-1 IIIB harboring reverse transcriptase Y188L mutant infected in human MT4 cells by MTT assay"}, "Cytochrome P450 2C19": {"biological_target": "Cytochrome P450 2C19 (Homo sapiens, UniProt P33261)", "sequence (P33261 whole entry)": "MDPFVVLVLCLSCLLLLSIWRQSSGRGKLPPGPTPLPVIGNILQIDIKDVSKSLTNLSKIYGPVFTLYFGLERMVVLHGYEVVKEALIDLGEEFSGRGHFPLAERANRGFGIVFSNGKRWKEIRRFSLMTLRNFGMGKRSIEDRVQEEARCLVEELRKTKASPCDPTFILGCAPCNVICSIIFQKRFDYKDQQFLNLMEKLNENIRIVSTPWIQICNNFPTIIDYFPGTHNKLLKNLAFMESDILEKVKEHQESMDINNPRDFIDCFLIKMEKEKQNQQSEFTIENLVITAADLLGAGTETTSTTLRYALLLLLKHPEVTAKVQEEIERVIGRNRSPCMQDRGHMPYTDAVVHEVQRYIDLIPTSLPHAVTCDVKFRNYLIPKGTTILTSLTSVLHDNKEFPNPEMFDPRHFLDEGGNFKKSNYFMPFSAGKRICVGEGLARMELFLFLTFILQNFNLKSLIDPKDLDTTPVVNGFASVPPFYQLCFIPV", "test": "Inhibition of CYP2C19 in human liver microsomes using S-mephenytoin as substrate incubated for 15 to 45 mins in presence of NADPH"}, "[22]": {"test": "Acute toxicity in 12 hr fasted male CD-1(ICR) mouse assessed as pathological damage in liver at 2 g/kg, IG administered as single dose measured after 14 days by H and E staining based analysis", "format": "tissue-based", "details": "in vivo, po, 2000 mg/kg, 336 h, time 14 day"}, "[23]": {"test": "Acute toxicity in 12 hr fasted male CD-1(ICR) mouse assessed as pathological damage in brain at 2 g/kg, IG administered as single dose measured after 14 days by H and E staining based analysis", "format": "tissue-based", "details": "in vivo, po, 2000 mg/kg, 336 h, time 14 day"}, "[24]": {"test": "Half life in Sprague-Dawley rat at 1 mg/kg, iv measured after 0.083 to 24 hrs by LC-MS analysis", "format": "ADME, organism-based", "details": "in vivo, time 0.083-24 hrs"}, "[25]": {"test": "AUC (0 to t) in Sprague-Dawley rat at 5 mg/kg, po measured after 0.083 to 24 hrs by LC-MS analysis", "format": "ADME, organism-based", "design": "dose 5 mg/kg, time upper 24 hrs, time lower 0.083 hrs, route po", "details": "in vivo"}, "[26]": {"test": "Acute toxicity in 12 hr fasted male CD-1(ICR) mouse assessed as behavioral abnormalities at 2 g/kg, IG administered as single dose measured after 14 days", "details": "in vivo, po, 2000 mg/kg, 336 h, time 14 day"}}}
{"compound": "COc1cc(-c2ccc(C#N)cc2)ccc1Oc1cc(N)nc(Nc2ccc(C#N)cc2)n1", "values": [{"measurement": "Activity", "setting": "[1]", "result": "Non-Toxic"}, {"measurement": "Cmax", "setting": "[2]", "result": 329, "unit": "ng/mL"}, {"measurement": "IC50", "setting": "Cytochrome P450 2D6", "result": "> 50", "unit": "µM"}, {"measurement": "Activity", "setting": "[3]", "result": "Non-Toxic"}, {"measurement": "MRT inf", "setting": "[4]", "result": 2.89, "unit": "h"}, {"measurement": "Activity", "setting": "[5]", "result": "Non-Toxic"}, {"measurement": "AUC(0-inf)", "setting": "[6]", "result": 124, "unit": "ng·h/mL"}, {"measurement": "IC50", "setting": "Cytochrome P450 1A2", "result": "> 50", "unit": "µM"}, {"measurement": "Activity", "setting": "[7]", "result": "Non-Toxic"}, {"measurement": "Activity", "setting": "[8]", "result": "Non-Toxic"}, {"measurement": "Activity", "setting": "[9]", "result": "Non-Toxic"}, {"measurement": "half-life", "setting": "[10]", "result": 140, "unit": "min"}, {"measurement": "EC50", "setting": "[11]", "result": 1.9, "unit": "nM"}, {"measurement": "Activity", "setting": "[12]", "result": "Non-Toxic"}, {"measurement": "inhibition at 40 µM", "setting": "hERG (KCNH2)", "result": 35.9, "unit": "%"}, {"measurement": "Activity", "setting": "[13]", "result": "Non-Toxic"}, {"measurement": "IC50", "setting": "[14]", "result": "> 40", "unit": "µM"}, {"measurement": "AUC(0-inf)", "setting": "[15]", "result": 329, "unit": "ng·h/mL"}, {"measurement": "Cmax", "setting": "[16]", "result": 44.8, "unit": "ng/mL"}, {"measurement": "Activity", "setting": "[17]", "result": "Non-Toxic"}, {"measurement": "EC50", "setting": "[18]", "result": 29, "unit": "nM"}, {"measurement": "Tmax", "setting": "[19]", "result": 4.8, "unit": "min"}, {"measurement": "EC50", "setting": "[20]", "result": 4, "unit": "nM"}, {"measurement": "EC50", "setting": "[21]", "result": 570, "unit": "nM"}, {"measurement": "IC50", "setting": "Cytochrome P450 2C19", "result": 4.51, "unit": "µM"}, {"measurement": "Activity", "setting": "[22]", "result": "Non-Toxic"}, {"measurement": "Activity", "setting": "[23]", "result": "Non-Toxic"}, {"measurement": "half-life", "setting": "[24]", "result": 60, "unit": "min"}, {"measurement": "AUC(0-t)", "setting": "[25]", "result": 116, "unit": "ng·h/mL"}, {"measurement": "Activity", "setting": "[26]", "result": "Non-Toxic"}]}
